Measured values as given in EP3636255A1 (priority 2018, dated 2020).
Read-outs that look alike come from different tables or passages of the source.

Experiments:
[1] = test system: HeLaMZ cells
[2] = test system: RPE1 cells
[3] = test system: CerS3 cells lacking the indicated genes; assay: Yeast growth assay of CerS3 cells lacking genes identified as hypersensitive by SATAY; conditions: 2.5 µM; 48 h at 30°C
[4] = test system: anthrax toxin; assay type: cell-based, human; conditions: RPE1 cells, 1 µM overnight
[5] = test system: yeast cells; assay: Yeast growth assay (ten-fold serial dilution spotting) of WT yeast with empty vector or expressing mammalian ceramide synthases; conditions: 48 h at 30°C
[6] = test system: Vesicular Stomatitis Virus (VSV); assay type: cell-based

| SMILES | toxicity (cell number by DAPI nuclei count) ([1]; 0.2-2 µM) | cellular toxicity [2] | sensitivity of the mutants (colony size and density) [3] | LF activity ([4]; 500 ng/ml PA83 and 50 ng/ml LF) | PA processing (PA83 to PA63, heptamer formation) ([4]; 500 ng/ml PA83 and 50 ng/ml LF) | MEK1(N) cleavage ([4]; control cleaved within 90 to 120 min) | sensitivity (colony size and density) ([5]; WT+CerS1, 5 to 20 µM) | sensitivity (colony size and density) ([5]; WT+CerS2, 5 to 20 µM) | sensitivity (colony size and density) ([5]; WT+CerS3, already at 5 µM) | sensitivity (colony size and density) ([5]; WT+CerS4, 5 to 20 µM) | sensitivity (colony size and density) ([5]; WT+CerS5, 10 µM) | sensitivity (colony size and density) ([5]; WT+CerS5, 20 µM) | sensitivity (colony size and density) ([5]; WT+CerS6, 10 µM) | sensitivity (colony size and density) ([5]; WT+CerS6, 20 µM) | sensitivity (colony size and density) ([5]; WT+EV (empty vector), 5 to 20 µM) | inhibition of viral infection, concentration dependence [6] | viral infection (GFP-positive cells) [6] | reduction of viral infectivity ([6]; 1 µM) | toxicity (cell count by DAPI-based nuclei count) [1] | toxicity (cell number by DAPI nuclei count) ([1]; at 1µM) |
| --- | --- | --- | --- | --- | --- | --- | --- | --- | --- | --- | --- | --- | --- | --- | --- | --- | --- | --- | --- | --- |
| C#CCCCCCCCCCCCCCC(O)C(C)N (centres unmarked) [Formula 2, 2-aminooctadec-17-yn-3-ol] | very little toxicity |  |  |  |  |  |  |  |  |  |  |  |  |  |  |  |  |  |  |  |
| CCCCCCCCCCCCCCCC(O)C(C)N (centres unmarked) [Formula 1, 2-aminooctadecan-3-ol] |  | not toxic | slightly more sensitive | prevented | unaffected | stabilized | insensitive | insensitive | highly sensitive | insensitive | mildly sensitive | highly sensitive | mildly sensitive | highly sensitive | insensitive | Concentration dependent inhibition | reduced viral infection | substantial | not toxic | starts to show some toxicity |
